Assays:
[1] = tested on: Lingnan yellow-feathered, fast-growing, and large-sized broilers
Excerpt: (§1) Experimental animals: 900 one-day-old Lingnan yellow-feathered, fast-growing, and large-sized broilers; 150 weaned piglets;
(§2) Feeds: basal feed for chickens and basal feed for pigs that contain no antimicrobial drugs, copper sources and growth promoters;
(§3) Experimental samples: compound 1, compound 2, compound 3, compound 4, compound 5, compound 6, compound 7,
900 one-day-old Lingnan yellow-feathered, fast-growing, and large-sized broilers were randomly divided into 18 groups (50 broilers/group). […] The broilers had free access to food. The weight gain and feed conversion of the experimental chickens (aged from 1 to 21 days) in each experimental group were recorded.

[2] = tested on: weaned piglets; settings: 50 mg/kg in feed (as copper ion), weaned piglets, 30 days
Excerpt: as §1, §2, §3
150 weaned piglets were grouped according to Table 2 (10 piglets/group). […] The piglets had free access to food. The weight gain and feed conversion of the experimental pigs in each experimental group were recorded within 30 days after […] weaning.

[3] = tested on: black carp (subyearlings); assay: Use of aspartic acid copper complex in aquaculture feeds (black carp breeding experiment); type: in vivo; settings: 30 mg/kg in feed (as copper ions), 8 weeks
Procedure: Experimental fishes: The experimental fishes used were black carp (subyearlings), which were provided by the Dafeng fish nursery (Huizhou city, Guangdong province). Healthy and active fingerling black carps (uniform in size) were fed for 4 weeks in a big net cage (4×2×1.5 m^3) and then the formal breeding experiment was carried out. The experimental systems were small floating net cages (1.1×1.1×1.1 m^3 in size). Each small net cage was provided with an air-filling head, which allowed for continuous inflation of the cages for 24 h a day. The small net cages and the acclimatization net cage were all placed in a 3500 m^2 pond in the experimental field. […] During the trial, 480 black carps (fasted for 1 d) were randomly divided into 10 groups, with 4 replicates for each group and 12 fishes in each replicate. After weighing as a whole, the black carps were randomly placed into […] and fed with different experimental feeds.
Experimental feeds: The experimental feeds were formulated following the formula in Table 5. According to Table 6, different copper element supplements (calculated based on the copper ions) were added to the feeds in different experimental groups, respectively. The feed raw materials were subjected to ultrafine grinding and then granulated into floating expanded feeds (3 mm) using an expansion machine from Jiangsu Muyang Corporation. The demolding temperature was 130° C. 3% soybean oil was externally sprayed using an oil spraying device. The finished product was sealed and stored in a cool place for later use.
Experimental management: During the trial, the carps were manually fed in a restricted dose. The feeding dose was adjusted once a week, and the doses for all groups (based on the initial body weight) were completely consistent. The carps were fed twice a day (at 7:30 and 15:00). The experiment lasted for 8 weeks. During the trial, the water quality was regularly monitored, and throughout the breeding, the water temperature was kept at 26.88±3.08° C., DO>5.0 mg O L^−1, pH 7.8, ammonia nitrogen<0.50 mg NL^−1, and nitrite-nitrogen<0.05 mg N L^−1.
Parametric statistics: During the trial, the carps in each net cage were weighed as a whole one day after discontinuation of feeding, and the average weight gain (g) and feed-to-meat ratio were calculated. The calculation formulas are as follows:
Average weight gain (g)=Average final weight−Average initial weight; Feed-to-meat ratio=Food intake/Weight gain of fishes;

[4] = 50 mg/kg (as copper ion), versus control
[5] = 50 mg/kg in feed (as copper ion), broilers aged 1 to 21 days

## N[C@@H](CC(=O)[O-])C(=O)[O-].[Cu+2] [Compound 4, [(Cu(II))(L-Asp)]]
[1]; [4]
  Feed conversion decreased by: 3.23%
  Relative weight gain rate increased by: 7.2%
[1]; [5]
  Average feed consumption: 924 g
  Average weight gain: 508 g
  Feed-to-meat ratio: 1.819
  Survival rate (%): 100%
[1]; 50 mg/kg in feed (as copper ion), broilers aged 1 to 21 days, relative to control group
  Relative weight gain rate (%): 107.2%
[1]; experimental groups of compounds 1-7
  Physical characteristics of the experimental chickens: normal physical characteristics
[2]
  Average weight gain: 11.67 kg
  Feed-to-meat ratio: 2.208
  Survival rate (%): 100%
[2]; 10 pigs
  Total feed consumption: 257.63 kg
  Total weight gain: 116.7 kg
[2]; control group = 100
  Relative weight gain rate (%): 107.06%
[3]
  Average weight gain: 344 g
  Feed-to-meat ratio: 1.453

Reference: patent US20240366553A1, “ASPARTIC ACID COPPER COMPLEX, AND USE THEREOF” (GUANGZHOU INSIGHTER BIOTECHNOLOGY CO., LTD., priority 2021, published 2024)
